Literature values as cited in US20260048031A1, “POLYMORPHS OF CO-CRYSTALS OF ITANAPRACED AND NICOTINAMIDE” (CereSpir Incorporated, priority 2024, published 2026).
Entries after “also recorded” stand apart in the source; their conditions may differ.

Assays:
[1] = in vivo
[2] = test system: transgenic Alzheimer's mouse models; conditions: Imbimbo, 2007, 2009; Lanzillotta 2011
[3] = test system: rat traumatic brain injury model
[4] = test system: mouse models of Parkinson's Disease; conditions: manuscript submitted
Juvenile Batten disease = conditions: unpublished
[5] = test system: patients with mild cognitive impairment (MCI); conditions: listed as itanapraced

penetration into the brain [1]: substantial
plasma half-life [1]: long
oral bioavailability ([1]; po): good
SMILES: O=C(O)C1(c2ccc(-c3ccc(Cl)c(Cl)c3)c(F)c2)CC1 [CSP-1103, 1-(3′,4′-dichloro-2-fluoro[1,1′-biphenyl]-4-yl)-cyclopropanecarboxylic acid]
effects in transgenic Alzheimer's mouse models [2]: numerous beneficial effects
effects in rat traumatic brain injury model ([3]; Lin et al., 2017): numerous beneficial effects
accumulation of hypertrophic microglia in the injured brain ([3]; rats after TBI (Li 2017)): prevented
acute lung injury ([3]; rats after TBI (Li 2017)): attenuated
neurological injury ([3]; rats after TBI (Li 2017)): attenuated
effects in mouse models of Parkinson's Disease [4]: numerous beneficial effects
effects in mouse models of Juvenile Batten disease (Juvenile Batten disease): numerous beneficial effects
TNF-α (neuroinflammatory mediator) ([5]; CSF / brain, MCI patients): beneficial dose-related CSF differences; also recorded: dose-related statistically significant reductions
soluble CD40 ligand (neuroinflammatory mediator) ([5]; CSF / brain, MCI patients): beneficial dose-related CSF differences; also recorded: dose-related statistically significant reductions
total tau (marker of neurodegeneration) ([5]; CSF / brain, MCI patients): beneficial dose-related CSF differences; also recorded: dose-related statistically significant reductions
cognitive function throughout the duration of the trial ([5]; MCI patients): stable cognition; also recorded: stable cognitive function
safety and tolerability ([5]; Phase 1 studies and Phase 2 in MCI, treated up to two years): good safety and tolerability; also recorded: well tolerated
